Series [1] concerns NCI-H524 (ATCC) human lung cancer cells. In kind it is cell-based. The following applies: Table 15. As for the experimental part: Conjugates were assessed in an in vitro assay evaluating inhibition of cell proliferation. NCI-H524 (ATCC) human lung cancer cells were plated in 96 well, V-bottomed plates (Costar) at a concentration of 5,000 cells/well and 24 hours later were treated with compound for 2 hours and further incubated 70 hours. Compound starting dose was 20 μM and three-fold serial dilutions were done for a total of ten points. After 2 hours of treatment, cells were spun down, the drug containing media was removed, and fresh complete medium was added and used to resuspend the cells, which were spun again. After removal of the wash media, the cells were resuspended in complete medium, then transferred into white walled, flat bottomed 96 well plates. […] Proliferation was measured using CellTiter Glo reagent using the standard protocol (Promega) and a Glomax multi+detection system (Promega). Percent proliferation inhibition was calculated using the following formula: % inhibition=(control-treatment)/control*100. Control is defined as vehicle alone. IC50 curves were generated using the nonlinear regression analysis (four parameter) with GraphPad Prism 6.
Conjugates of the present invention were assessed in an in vitro assay evaluating inhibition of cell proliferation. NCI-H524 (ATCC) human lung cancer cells were plated in 96 well, V-bottomed plates (Costar) at a concentration of 5,000 cells/well. 24 hours later, cells were treated with either conjugate for 2 hours and further incubated 70 hours, or for octreotide competition experiments, treated with 100 μM octreotide for 30 min, and then treated with conjugate for 2 hours, and further incubated for 70 hours. Conjugate starting dose was 20 μM and three fold serial dilutions were done for a total of ten points. After 2 hours of treatment, cells were spun down, the drug containing media was removed, and fresh complete medium was added and used to resuspend the cells, which were spun again. After removal of the wash media, the cells were resuspended in complete medium, then transferred into white walled, flat bottomed 96 well plates. […] Proliferation was measured using CellTiter Glo reagent using the standard protocol (Promega) and a Glomax multi+detection system (Promega). Percent proliferation inhibition was calculated using the following formula: % inhibition=(control-treatment)/control*100. Control is defined as vehicle alone. IC50 curves were generated using the nonlinear regression analysis (four parameter) with GraphPad Prism 6.
Conjugates of the present invention were tested for their activity dependence on the somatostatin receptor. Active agent Z in the conjugate was selected from auristatin, carbazitaxel, DM1, doxorubicin, platinum, SN-38 and vinblastine. Active agent Z is connected to octreotide with various linkers. Proliferation IC50 values of the conjugates were measured. Proliferation IC50 values of the conjugates without octreotide competition were also measured. The ratio of IC50 with octreotide competition and IC50 without octreotide competition is an indicator of whether activity is at least partially dependent on bind to the somatostatin receptor.

The test system of series [2] is NCI-H69 SCLC (small cell lung cancer) tumors. The experiment in a line: H69 tumor DM-1 levels by LC/MS-MS. Format: in vivo, mice. The conditions noted are these: 24 hour time point; dosed at 1 mg/kg (conjugates, nanoparticles) or 0.4 mg/kg for DM-1. Here is the method: To examine the ability of conjugates of the present invention to accumulate in tumors, a murine cancer model was used. All mice were treated in accordance with the OLAW Public Health Service Policy on Human Care and Use of Laboratory Animals and the ILAR Guide for the Care and Use of Laboratory Animals. All in vivo studies were conducted following the protocols approved by the Blend Therapeutics Institutional Animal Care and Use Committee. Animals were inoculated with 2.5×10{circumflex over (0)}6 NCI-H69 SCLC (small cell lung cancer) cells in 1:1 RPMI 1640 (Invitrogen, Carlsbad, Calif.)/Matrigel® (BD Biosciences, San Jose, Calif.) via subcutaneous injection to the right flank. Tumors were allowed to reach an approximate volume of ˜500 mm3. Animals were then randomized into treatment groups of 3 animals per time point and were dosed at 1 mg/kg (10% propylene glycol in water for injection for free conjugates, or 10% sucrose for nanoparticles), or 0.4 mg/kg for DM-1 (10% propylene glycol in water for injection). The 24 hour time point was used as a benchmark across conjugates.
Tumor DM-1 levels were determined by liquid chromatography mass spectrometry (LC/MS-MS). Four volumes of 5 mM 6-maleimidohexanoic acid to 1 part tumor v/w was added and homogenized for about 10-15 seconds with a handheld homogenizer. 10 μL of 500 mM Tris(2-carboxyethyl)phosphine was added to 100 uL of tumor homogenate, mixed well and incubated at room temperature for about 5-15 min. 200-300 uL of acetonitrile was used to precipitate proteins in tumor homogenate, samples were centrifuged for 5 min, and supernatant was injected onto LC/MS-MS system for DM-1 analysis.

Setting [3] is: treated 2 hours, further incubated 70 hours, read-out: H524 IC50.
[4] abbreviates: read-out: H524 IC50+ 100 uM octreotide, 100 μM octreotide for 30 min, then conjugate 2 hours, 70 hours incubation.

Usually IC50 stands for the point on the concentration scale where inhibition reaches its midpoint.

Read-outs that look alike come from different tables or passages of the source.

As for `CCCCN(CCSSCCC(=O)N(C)[C@@H](C)C(=O)O[C@H]1CC(=O)N(C)c2cc(cc(OC)c2Cl)C/C(C)=C/C=C/[C@@H](OC)[C@@]2(O)C[C@H](OC(=O)N2)[C@@H](C)[C@@H]2O[C@@]12C)C(=O)CC[C@H]1C(=O)N[C@@H](Cc2ccc(O)cc2)C(=O)N[C@H](Cc2c[nH]c3ccccc23)C(=O)N[C@@H](CCCCN)C(=O)N[C@@H]([C@@H](C)O)C(=O)N[C@@H](Cc2ccccc2)C(=O)N1C` [Conjugate 22], the IC50 came out at 332 nM in series [1] (setting [3]) and 741 nM in series [1] (setting [4]). Besides, the “H69 tumor DM-1 levels” value in series [2] is listed as 145 nM.

For the compound `COc1cc2cc(c1Cl)N(C)C(=O)C[C@H](OC(=O)[C@H](C)N(C)C(=O)CCSSCCC(=O)NCc1ccc(C[C@@H](N)C(=O)N[C@H]3CSSC[C@@H](C(=O)N[C@H](C(=O)O)[C@@H](C)O)NC(=O)[C@H]([C@@H](C)O)NC(=O)[C@H](CCCCN)NC(=O)[C@@H](Cc4c[nH]c5ccccc45)NC(=O)[C@H](Cc4ccc(O)cc4)NC3=O)cc1)[C@]1(C)O[C@H]1[C@H](C)[C@@H]1C[C@@](O)(NC(=O)O1)[C@H](OC)/C=C/C=C(\C)C2` [Conjugate 115], the IC50 in series [1] (setting [3]) worked out at 327 nM; in series [1] (setting [4]), 1500 nM. Moreover, the “H69 tumor DM-1 levels” value in series [2] came out at 37.1 nM.

Turning to `COc1cc2cc(c1Cl)N(C)C(=O)C[C@H](OC(=O)[C@H](C)N(C)C(=O)CCS)[C@]1(C)O[C@H]1[C@H](C)[C@@H]1C[C@@](O)(NC(=O)O1)[C@H](OC)/C=C/C=C(\C)C2` [DM-1, reference compound], the IC50 in series [1] (setting [3]) and in series [1] (setting [4]) was 90 nM in each case. In addition, the “H69 tumor DM-1 levels” value in series [2] worked out at 31.6 nM.

Take `CCCCCCCCCCC(CCN[C@H](Cc1ccccc1)C(=O)N[C@H]1CSSC[C@@H](C(=O)N[C@@H](CO)[C@@H](C)O)NC(=O)[C@H]([C@@H](C)O)NC(=O)[C@H](CCCCN)NC(=O)[C@@H](Cc2c[nH]c3ccccc23)NC(=O)[C@H](Cc2ccccc2)NC1=O)SSCCC(=O)N(C)[C@@H](C)C(=O)O[C@H]1CC(=O)N(C)c2cc(cc(OC)c2Cl)C/C(C)=C/C=C/[C@@H](OC)[C@@]2(O)C[C@H](OC(=O)N2)[C@@H](C)[C@@H]2O[C@@]12C` (stereo partly drawn) [Conjugate 106]: the IC50 was 400 nM in series [1] (setting [3]) and 666 nM in series [1] (setting [4]).

As to `COc1cc2cc(c1Cl)N(C)C(=O)C[C@H](OC(=O)[C@H](C)N(C)C(=O)CCSSCCC(=O)NCCNC(=O)[C@H](Cc1c[nH]c3ccccc13)NC(=O)[C@@H]1CSSC[C@H](NC(=O)[C@H](N)Cc3ccccc3)C(=O)N[C@@H](Cc3ccc(O)cc3)C(=O)N[C@H](Cc3c[nH]c4ccccc34)C(=O)N[C@@H](CCCCN)C(=O)N[C@@H]([C@@H](C)O)C(=O)N1)[C@]1(C)O[C@H]1[C@H](C)[C@@H]1C[C@@](O)(NC(=O)O1)[C@H](OC)/C=C/C=C(\C)C2` [Conjugate 45], the IC50 came out at 345 nM in series [1] (setting [3]) and 481 nM in series [1] (setting [4]).

With `COc1cc2cc(c1Cl)N(C)C(=O)C[C@H](OC(=O)[C@H](C)N(C)C(=O)CCSSCCOCCOCCOCCOCCCN[C@H](Cc1ccccc1)C(=O)N[C@H]1CSSC[C@@H](C(=O)N[C@H](CO)[C@@H](C)O)NC(=O)[C@H]([C@@H](C)O)NC(=O)[C@H](CCCCN)NC(=O)[C@@H](Cc3c[nH]c4ccccc34)NC(=O)[C@H](Cc3ccccc3)NC1=O)[C@]1(C)O[C@H]1[C@H](C)[C@@H]1C[C@@](O)(NC(=O)O1)[C@H](OC)/C=C/C=C(\C)C2` [Conjugate 96], the IC50 in series [1] (setting [3]) was 206 nM; in series [1] (setting [4]), 397 nM.

Turning to `COc1cc2cc(c1Cl)N(C)C(=O)C[C@H](OC(=O)[C@H](C)N(C)C(=O)CCSSCCC(=O)NCCNC(=O)[C@@H](NC(=O)[C@@H]1CSSC[C@H](NC(=O)[C@H](N)Cc3c[nH]c4ccccc34)C(=O)N[C@@H](Cc3ccc(O)cc3)C(=O)N[C@H](Cc3c[nH]c4ccccc34)C(=O)N[C@@H](CCCCN)C(=O)N[C@@H]([C@@H](C)O)C(=O)N1)[C@@H](C)O)[C@]1(C)O[C@H]1[C@H](C)[C@@H]1C[C@@](O)(NC(=O)O1)[C@H](OC)/C=C/C=C(\C)C2` [Conjugate 51], the IC50 stood at 124 nM in series [1] (setting [3]) and 238 nM in series [1] (setting [4]).

Consider `COc1cc2cc(c1Cl)N(C)C(=O)C[C@H](OC(=O)[C@H](C)N(C)C(=O)CCSSC[C@@H](N)C(=O)N[C@H]1CSSC[C@@H](C(=O)N[C@H](C(=O)O)[C@@H](C)O)NC(=O)[C@H]([C@@H](C)O)NC(=O)[C@H](CCCCN)NC(=O)[C@@H](Cc3c[nH]c4ccccc34)NC(=O)[C@H](Cc3ccc(O)cc3)NC1=O)[C@]1(C)O[C@H]1[C@H](C)[C@@H]1C[C@@](O)(NC(=O)O1)[C@H](OC)/C=C/C=C(\C)C2` [Conjugate 119], for which the half-maximal inhibitory concentration (IC50) in series [1] (setting [3]) is 2660 nM; in series [1] (setting [4]), over 5000 nM.

For `CCNC(=O)N[C@H](Cc1ccccc1)C(=O)N[C@H]1CSSC[C@@H](C(=O)N[C@H](C(=O)NCCSSCCC(=O)N(C)[C@@H](C)C(=O)O[C@H]2CC(=O)N(C)c3cc(cc(OC)c3Cl)C/C(C)=C/C=C/[C@@H](OC)[C@@]3(O)C[C@H](OC(=O)N3)[C@@H](C)[C@@H]3O[C@@]23C)[C@@H](C)O)NC(=O)[C@H]([C@@H](C)O)NC(=O)[C@H](CCCCN)NC(=O)[C@@H](Cc2c[nH]c3ccccc23)NC(=O)[C@H](Cc2ccc(O)cc2)NC1=O` [Conjugate 65], the IC50 in series [1] (setting [3]) is 30 nM; in series [1] (setting [4]) it was 229 nM.

With `COc1cc2cc(c1Cl)N(C)C(=O)C[C@H](OC(=O)[C@H](C)N(C)C(=O)CCSCCCN[C@H](Cc1ccccc1)C(=O)N[C@H]1CSSC[C@@H](C(=O)N[C@H](CO)[C@@H](C)O)NC(=O)[C@H]([C@@H](C)O)NC(=O)[C@H](CCCCN)NC(=O)[C@@H](Cc3c[nH]c4ccccc34)NC(=O)[C@H](Cc3ccccc3)NC1=O)[C@]1(C)O[C@H]1[C@H](C)[C@@H]1C[C@@](O)(NC(=O)O1)[C@H](OC)/C=C/C=C(\C)C2` [Conjugate 100], the IC50 in series [1] (setting [3]) came out at 303 nM; in series [1] (setting [4]) it was 1060 nM.

On to `COc1cc2cc(c1Cl)N(C)C(=O)C[C@H](OC(=O)[C@H](C)N(C)C(=O)CCSSCCCN1CCN(CC(=O)N[C@H](Cc3ccccc3)C(=O)N[C@H]3CSSC[C@@H](C(=O)N[C@H](CO)[C@@H](C)O)NC(=O)[C@H]([C@@H](C)O)NC(=O)[C@H](CCCCN)NC(=O)[C@@H](Cc4c[nH]c5ccccc45)NC(=O)[C@H](Cc4ccccc4)NC3=O)CC1)[C@]1(C)O[C@H]1[C@H](C)[C@@H]1C[C@@](O)(NC(=O)O1)[C@H](OC)/C=C/C=C(\C)C2` [Conjugate 86], for which the IC50 in series [1] (setting [3]) is 386 nM; in series [1] (setting [4]), 553 nM.

As to `COc1cc2cc(c1Cl)N(C)C(=O)C[C@H](OC(=O)[C@H](C)N(C)C(=O)CCSSCC(=O)NCCNC(=O)CC[C@H]1C(=O)N[C@@H](Cc3ccc(O)cc3)C(=O)N[C@H](Cc3c[nH]c4ccccc34)C(=O)N[C@@H](CCCCN)C(=O)N[C@@H]([C@@H](C)O)C(=O)N[C@@H](Cc3ccccc3)C(=O)N1C)[C@]1(C)O[C@H]1[C@H](C)[C@@H]1C[C@@](O)(NC(=O)O1)[C@H](OC)/C=C/C=C(\C)C2` [Conjugate 30], the IC50 in series [1] (setting [3]) stood at 470 nM; in series [1] (setting [4]) it was 2020 nM.

(Values after patent US10322191B2, “Targeted conjugates and particles and formulations thereof” (TARVEDA THERAPEUTICS, INC., priority 2014, dated 2019).)
